Source: ChEMBL document CHEMBL3091444, “5-Chlorothiophene-2-carboxylic acid [(S)-2-[2-methyl-3-(2-oxopyrrolidin-1-yl)benzenesulfonylamino]-3-(4-methylpiperazin-1-yl)-3-oxopropyl]amide (SAR107375), a selective and potent orally active dual thrombin and factor Xa inhibitor” (J Med Chem, 2013)

Experiments:
[1] = Metabolic stability in human liver microsomes at 5 uM after 20 mins; format: ADME; conditions: read-out: Stability
[2] = Metabolic stability in Swiss CD1 mouse liver microsomes at 5 uM after 20 mins; format: ADME, Microsome; conditions: read-out: Stability
[3] = Metabolic stability in Sprague-Dawley rat liver microsomes at 5 uM after 20 mins; format: ADME; conditions: read-out: Stability
Liver microsome = assay: Drug metabolism in human liver microsomes assessed as oxidation; format: ADME
[4] = Cmax in Sprague-Dawley rat at 3 mg/kg, iv; format: ADME, organism-based; parameters: dose 3 mg/kg, route intravenous; conditions: in vivo
[5] = Cmax in dog at 10 mg/kg, po; format: ADME, organism-based, Canis lupus familiaris; parameters: dose 10 mg/kg, route oral; conditions: in vivo
[6] = AUC in dog at 10 mg/kg, po; format: ADME, organism-based, Canis lupus familiaris; parameters: dose 10 mg/kg, route oral; conditions: plasma
[7] = Oral bioavailability in Sprague-Dawley rat at 10 mg/kg; format: ADME, organism-based; conditions: in vivo
[8] = Half life in Sprague-Dawley rat at 3 mg/kg, iv; format: ADME, organism-based; parameters: dose 3 mg/kg, route intravenous; conditions: in vivo
[9] = Half life in Sprague-Dawley rat at 10 mg/kg, po; format: ADME, organism-based; parameters: dose 10 mg/kg, route oral; conditions: in vivo
[10] = Clearance in dog at 3 mg/kg, iv; format: ADME, organism-based, Canis lupus familiaris; parameters: dose 3 mg/kg, route intravenous; conditions: in vivo
[11] = AUC in Sprague-Dawley rat at 3 mg/kg, iv; format: ADME, organism-based; parameters: dose 3 mg/kg, route intravenous; conditions: plasma
[12] = Oral bioavailability in dog at 10 mg/kg; format: ADME, organism-based, Canis lupus familiaris; conditions: in vivo
[13] = AUC in Sprague-Dawley rat at 10 mg/kg, po; format: ADME, organism-based; parameters: dose 10 mg/kg, route oral; conditions: plasma
[14] = Cmax in Sprague-Dawley rat at 10 mg/kg, po; format: ADME, organism-based; parameters: dose 10 mg/kg, route oral; conditions: in vivo
[15] = Cmax in dog at 3 mg/kg, iv; format: ADME, organism-based, Canis lupus familiaris; parameters: dose 3 mg/kg, route intravenous; conditions: in vivo
[16] = Tmax in dog at 10 mg/kg, po; format: ADME, organism-based, Canis lupus familiaris; parameters: dose 10 mg/kg, route oral; conditions: in vivo
[17] = Volume of distribution at steady state in Sprague-Dawley rat at 3 mg/kg, iv; format: ADME, organism-based; parameters: dose 3 mg/kg, route intravenous; conditions: in vivo, read-out: Vdss
[18] = Clearance in Sprague-Dawley rat at 3 mg/kg, iv; format: ADME, organism-based; parameters: dose 3 mg/kg, route intravenous; conditions: in vivo
[19] = Volume of distribution at steady state in dog at 3 mg/kg, iv; format: ADME, organism-based, Canis lupus familiaris; parameters: dose 3 mg/kg, route intravenous; conditions: in vivo, read-out: Vdss
[20] = Tmax in Sprague-Dawley rat at 10 mg/kg, po; format: ADME, organism-based; parameters: dose 10 mg/kg, route oral; conditions: in vivo
[21] = Half life in dog at 3 mg/kg, iv; format: ADME, organism-based, Canis lupus familiaris; parameters: dose 3 mg/kg, route intravenous; conditions: in vivo
[22] = AUC in dog at 3 mg/kg, iv; format: ADME, organism-based, Canis lupus familiaris; parameters: dose 3 mg/kg, route intravenous; conditions: plasma
[23] = Half life in dog at 10 mg/kg, po; format: ADME, organism-based, Canis lupus familiaris; parameters: dose 10 mg/kg, route oral; conditions: in vivo
[24] = Permeability of the compound across human Caco2 cells; format: ADME, cell-based; conditions: Caco-2, read-out: permeability

Row | remaining at 20 min, 5 µM [1] | remaining at 20 min, 5 µM [2] | remaining at 20 min, 5 µM [3] | Structure (SMILES) | also measured
1 | 99% | 99% | 65% | CCc1c(-c2ccccn2)cccc1S(=O)(=O)N[C@@H](CNC(=O)c1ccc(Cl)s1)C(=O)N1CCOC[C@@H]1C | Drug metabolism (Liver microsome): Active
2 | 34% | 25% | 25% | Cc1c(N2CCCC2=O)cccc1S(=O)(=O)N[C@@H](CNC(=O)c1ccc(Cl)s1)C(=O)N1CCN(C)CC1.Cl | Cmax [4]: 1300 ng/mL; Cmax [5]: 1530 ng/mL; AUC [6]: 2600 ng·h/mL; bioavailability [7]: 21%; half-life [8]: 6.6 h; half-life [9]: 6.2 h; clearance [10]: 28.3 mL/min/kg; AUC [11]: 510 ng·h/mL; bioavailability [12]: 47%; AUC [13]: 360 ng·h/mL; Cmax [14]: 154 ng/mL; Cmax [15]: 3500 ng/mL; Tmax [16]: 0.5 h; Vd [17]: 4.6 L/kg; clearance [18]: 96.7 mL/min/kg; Vd [19]: 1.5 L/kg; Tmax [20]: 0.25 h; half-life [21]: 1.1 h; AUC [22]: 1800 ng·h/mL; half-life [23]: 2.4 h
3 | 72% | 69% | 63% | CN1CCN(C(=O)[C@H](CNC(=O)c2ccc(Cl)s2)NS(=O)(=O)c2cccc(N3CCOCC3=O)c2Cl)CC1 | 
4 | 99% | 98% | 99% | CCc1c(N2CCOCC2=O)cccc1S(=O)(=O)N[C@@H](CNC(=O)c1ccc(Cl)s1)C(=O)N1CCC(OC)CC1 | 
5 | 99% | 99% | 99% | CCc1c(N2CCOCC2=O)cccc1S(=O)(=O)N[C@@H](CNC(=O)c1ccc(Cl)s1)C(=O)N1CCOC[C@@H]1C | 

The next lines start with the molecule.

Row | Structure (SMILES) | remaining at 20 min, 5 µM [1] | remaining at 20 min, 5 µM [2] | remaining at 20 min, 5 µM [3] | also measured
6 | Cc1c(N2CCOCC2=O)cccc1S(=O)(=O)N[C@@H](CNC(=O)c1ccc(Cl)s1)C(=O)N1CCOC[C@@H]1C | 74% | 91% | 58% | 
7 | Cc1c(N2CCOCC2=O)cccc1S(=O)(=O)N[C@@H](CNC(=O)c1ccc(Cl)s1)C(=O)N1CCN(C)CC1 | 52% | 26% | 0% | 
8 | CCc1c(N2CCOCC2=O)cccc1S(=O)(=O)N[C@@H](CNC(=O)c1ccc(Cl)s1)C(=O)N1CCC(O)CC1 | 80% | 68% | 51% | 
9 | CN1CCN(C(=O)[C@H](CNC(=O)c2ccc(Cl)s2)NS(=O)(=O)c2cccc(N3CCCC3=O)c2Cl)CC1 | 59% | 45% | 54% | 
10 | O=C(NC[C@H](NS(=O)(=O)c1cccc(N2CCOCC2=O)c1Cl)C(=O)N1CCC(O)CC1)c1ccc(Cl)s1 | 38% | 18% | 58% | 
11 | Cc1c(-c2ccccn2)cccc1S(=O)(=O)N[C@@H](CCCc1ccc(N)cn1)C(=O)N1CCC(=C(F)F)CC1 |  |  |  | Papp [24]: 9.6 ×10⁻⁶ cm/s
